In PMC2791885 (Journal of nuclear medicine : official publication, Society …, 2009):

Tests used:
[1] = ultrafiltration, 5 control animals; cited from earlier work
PDE4 = test: PET compartmental modeling of brain and plasma data
[2] = transient equilibrium, range over scans

## COc1ccc([C@@H]2CNC(=O)C2)cc1OC1CCCC1 [(R)-rolipram]
[1]
  plasma-free fraction (fP): 30.5% ± 3.1
PDE4; baseline scans
  concentration of free radioligand calculated with Equation 2: 0.08 to 0.17 nM
PDE4; partially blocked scans
  concentration of free radioligand calculated with Equation 2: 0.29 to 3.00 nM
PDE4; [2]
  calculated concentration of free ligand in brain: 0.07 to 5.68 nM
  calculated concentration of specifically bound ligand in brain: 3.63 to 88.3 nM
